Series [1] concerns the target T1, Dog sEH (Canis lupus familiaris, UniProt A0A8I3NJL8).
T1 sequence (A0A8I3NJL8 1-556): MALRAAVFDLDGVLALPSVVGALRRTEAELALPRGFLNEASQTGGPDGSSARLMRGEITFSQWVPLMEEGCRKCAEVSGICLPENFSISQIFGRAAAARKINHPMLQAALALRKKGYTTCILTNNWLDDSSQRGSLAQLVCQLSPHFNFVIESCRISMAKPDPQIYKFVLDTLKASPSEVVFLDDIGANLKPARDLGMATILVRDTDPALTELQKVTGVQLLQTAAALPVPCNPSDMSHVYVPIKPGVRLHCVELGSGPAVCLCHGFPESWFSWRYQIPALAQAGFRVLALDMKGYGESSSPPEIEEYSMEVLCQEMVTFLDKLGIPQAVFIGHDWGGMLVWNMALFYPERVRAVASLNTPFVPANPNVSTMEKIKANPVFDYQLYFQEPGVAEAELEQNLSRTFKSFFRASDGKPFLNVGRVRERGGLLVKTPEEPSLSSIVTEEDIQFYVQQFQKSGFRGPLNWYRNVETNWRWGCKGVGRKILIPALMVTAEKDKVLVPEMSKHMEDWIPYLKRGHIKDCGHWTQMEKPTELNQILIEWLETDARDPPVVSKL
The series is described as follows: Secondary screen (kinetic mode), PHOME substrate. It counts as biochemical. The note with it: [I] = 100 nM, secondary kinetic mode screening.

The target of series [2] is T2, Cat sEH (Felis catus, UniProt A0ABI7ZL20). The series is described as follows: Secondary screen (kinetic mode), PHOME substrate. The note with it: read-out: Cat sEH Inhibition (%) S. It counts as biochemical.
In series [3] the target is T3, Horse sEH (Equus caballus, UniProt F7C407). The series is described as follows: Secondary screen (kinetic mode), PHOME substrate. The note with it: [I] = 100 nM, secondary kinetic mode screening. The class given is biochemical.
In series [4] the target is T3, Horse sEH. The series is described as follows: Primary screen (end point) of the sEH inhibitor library, PHOME substrate. The class given is biochemical. The note with it: [I] = 100 nM, primary end-point screening. As for the experimental part: (§1) Primary screening of the library was performed with an inhibitor concentration of 100 nM using PHOME as substrate ([22]). […] The plates were then mixed and incubated at 30°C for 5 min. Across each plate, 30 μL of the working substrate solution (270 μL of 5 mM PHOME solution in DMSO diluted with 3,680 μL of buffer) were added quickly to yield [S]final: 50 μM. Each plate was further incubated at room temperature (horse sEH: 60 min; cat sEH: 45 min; dog sEH: 30 min).

For series [5], the target named is T1, Dog sEH. The series is described as above. The note with it: [I] = 100 nM, primary end-point screening. It counts as biochemical. Here is the method:
as §1

Series [6] has as its target T2, Cat sEH. Described as above. It counts as biochemical. The note with it: read-out: Cat sEH Inhibition (%) P. As for the experimental part: as §1
Series [7] deals with sEH. The note with it: non-selective pan-esterase inhibitor used at 100 μM; ref [18]; cited from earlier work.
A short description of series [8]: Microsomal stability. The class given is in vitro ADME, dog. The note with it: 1 μM inhibitor, microsomes 1 mg/mL, 37°C, 30 min, compound remaining, average ± SD (n = 3). As for the experimental part: (§2) The stability of the sEH inhibitors was determined using liver microsomes as described ([24]). […] After 30 min at 37°C, the reaction was stopped by the addition of one volume of methanol containing CUDA (200 nM) as surrogate. The amount of remaining inhibitor was determined by LC/MS/MS. The stability is reported as a percentage of compound remaining after 30 min in these conditions.
(§3) Mass spectrometry analyses were performed using a Waters Quattro Premier triple quadrupole tandem mass spectrometer (Micromass, Manchester, UK) interfaced to an electrospray ionization (ESI) source. The MS was coupled with a Waters Acquity UPLC (Waters, Milford, MA, USA). A Varian Pursuit5 C18 RP HPLC column (150 mm × 2.1 mm, particle size 5 μm) was used to separate the analytes. […] The source and the desolvation temperatures were set at 120 and 300°C, respectively. […] Dwell time was set to 0.1 s.

The target of series [9] is sEH activity from liver cytosol of Cow (Bos taurus, UniProt Q17QK4). The series is described as follows: sEH inhibition potency (IC50), radioactive assay with [3H]t-DPPO, liver cytosol. The class given is biochemical. The note with it: [3H]t-DPPO ([S]final = 5 μM) as substrate. From the text:
(§4) Fresh liver tissues samples (5–30 g) were collected promptly after death from healthy adult cat, dog and horse euthanized for reasons unrelated to this study, and whose bodies were given to science by the owners in line with federal regulations and protocol approved by the Institutional Animal Care and Use Committee at University of California Davis. Similarly, tissues from the other animals tested herein were collected from healthy animals immediately after being slaughter at the university abattoir. Because no animals were directly used or killed for this study, sample collections were exempted from approval by the Institutional Animal Care and Use Committee of the University of California Davis and Michigan State University. […] The tissues were flash-frozen in liquid nitrogen following removal, and then kept at −80°C until used. After thawing on ice, the samples were homogenized in chilled sodium phosphate buffer (20 mM pH 7.4) containing 5 mM EDTA, 1 mM DTT and 1 mM PMSF (tissue weight:buffer volume ratio 1:4). These homogenates were centrifuged at 100,000 g for 60 min at 4°C. The supernatant (the cytosolic fraction) was separated from the pellet, aliquoted and flash frozen in liquid nitrogen, then kept frozen at −80°C until usage.
(§5) The IC50 values reported herein were determined using either a fluorescent based assay (CMNPC as substrate) for purified enzyme preparations or a radioactive based assay ([^3H]t-DPPO as substrate) for crude enzyme preparations ([20]). The fluorescent assay was used with the purified proteins. […] The substrate (CMNPC) was then added ([S]final = 5 μM). […] The radioactive […] assay was used with the liver crude extracts. Extracts were incubated with inhibitors ([I]final = 1–1,000 nM) at 30° C for 5 min in sodium phosphate buffer (pH 7.4) containing 0.1 mg/mL of BSA and 1% of DMSO, prior to substrate introduction ([^3H]t-DPPO [S]final: 50 μM; ~12,000 dpm/assay). The enzymes were incubated at 30°C for 10 min, and the reaction was quenched by the addition of 60 μL methanol and 200 μL isooctane, which extracts the remaining epoxide from the aqueous phase. […] Assays were performed in triplicate.

In series [10] the target is T4, sEH activity from liver cytosol of Hamster (Mesocricetus auratus, UniProt A0A1U7QV09).
T4 sequence (A0A1U7QV09 1-554): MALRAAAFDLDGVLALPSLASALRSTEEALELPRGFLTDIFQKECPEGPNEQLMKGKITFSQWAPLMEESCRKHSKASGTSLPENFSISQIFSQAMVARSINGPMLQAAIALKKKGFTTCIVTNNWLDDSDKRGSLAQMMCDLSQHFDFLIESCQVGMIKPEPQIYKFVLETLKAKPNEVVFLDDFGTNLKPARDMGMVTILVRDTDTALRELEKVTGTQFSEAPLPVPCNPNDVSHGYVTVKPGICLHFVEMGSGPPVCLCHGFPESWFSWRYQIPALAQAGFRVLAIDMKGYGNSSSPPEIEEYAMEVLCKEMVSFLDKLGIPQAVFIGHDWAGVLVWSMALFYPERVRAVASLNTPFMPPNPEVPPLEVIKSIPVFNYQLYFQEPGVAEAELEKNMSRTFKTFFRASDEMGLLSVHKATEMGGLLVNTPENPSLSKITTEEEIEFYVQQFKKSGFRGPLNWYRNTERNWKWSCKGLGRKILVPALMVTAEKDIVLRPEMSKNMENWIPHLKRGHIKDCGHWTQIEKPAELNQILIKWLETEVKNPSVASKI
Described as above. The note with it: [3H]t-DPPO ([S]final = 5 μM) as substrate. The class given is biochemical.
Description: as §4, §5

A short description of series [11]: Microsomal stability. It counts as in vitro ADME, cat. As for the experimental part:
as §2, §3

Series [12] can be described thus: Microsomal stability. It counts as in vitro ADME, horse. The note with it: 1 μM inhibitor, microsomes 1 mg/mL, 37°C, 30 min, compound remaining, average ± SD (n = 3). As for the experimental part:
as §2, §3

The structures appear in SMILES notation.

T3 sequence (F7C407 entry or part of it): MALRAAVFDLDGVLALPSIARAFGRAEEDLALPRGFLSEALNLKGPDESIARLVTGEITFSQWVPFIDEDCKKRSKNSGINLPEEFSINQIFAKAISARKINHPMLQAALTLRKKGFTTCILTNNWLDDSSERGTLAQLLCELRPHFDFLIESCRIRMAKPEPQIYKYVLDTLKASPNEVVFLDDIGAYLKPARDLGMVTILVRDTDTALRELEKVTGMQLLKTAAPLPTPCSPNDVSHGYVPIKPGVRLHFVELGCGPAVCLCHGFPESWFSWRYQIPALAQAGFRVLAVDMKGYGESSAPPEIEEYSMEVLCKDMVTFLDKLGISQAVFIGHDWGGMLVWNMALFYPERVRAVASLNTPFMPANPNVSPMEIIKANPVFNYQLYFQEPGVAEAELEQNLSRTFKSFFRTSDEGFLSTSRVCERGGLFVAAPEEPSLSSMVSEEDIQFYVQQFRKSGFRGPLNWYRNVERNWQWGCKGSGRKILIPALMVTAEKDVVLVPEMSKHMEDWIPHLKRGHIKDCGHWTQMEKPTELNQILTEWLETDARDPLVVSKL
T2 sequence (A0ABI7ZL20 entry or part of it): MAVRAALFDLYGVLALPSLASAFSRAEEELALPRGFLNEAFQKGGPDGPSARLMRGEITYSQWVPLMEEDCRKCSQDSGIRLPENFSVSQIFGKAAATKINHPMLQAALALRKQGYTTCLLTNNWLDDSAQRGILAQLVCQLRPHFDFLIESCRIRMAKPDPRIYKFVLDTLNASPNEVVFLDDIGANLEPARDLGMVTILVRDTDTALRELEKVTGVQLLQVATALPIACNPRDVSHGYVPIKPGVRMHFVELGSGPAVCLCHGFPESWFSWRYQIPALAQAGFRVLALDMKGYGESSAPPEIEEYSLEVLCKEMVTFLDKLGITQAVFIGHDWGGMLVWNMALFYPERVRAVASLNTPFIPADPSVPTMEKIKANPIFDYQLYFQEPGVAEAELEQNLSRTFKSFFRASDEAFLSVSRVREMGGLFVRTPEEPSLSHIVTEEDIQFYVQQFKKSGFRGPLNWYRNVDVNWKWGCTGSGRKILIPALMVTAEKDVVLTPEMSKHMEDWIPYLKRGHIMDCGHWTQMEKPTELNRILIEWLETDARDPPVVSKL
sEH activity from liver cytosol of Cow, sequence (Q17QK4 entry or part of it): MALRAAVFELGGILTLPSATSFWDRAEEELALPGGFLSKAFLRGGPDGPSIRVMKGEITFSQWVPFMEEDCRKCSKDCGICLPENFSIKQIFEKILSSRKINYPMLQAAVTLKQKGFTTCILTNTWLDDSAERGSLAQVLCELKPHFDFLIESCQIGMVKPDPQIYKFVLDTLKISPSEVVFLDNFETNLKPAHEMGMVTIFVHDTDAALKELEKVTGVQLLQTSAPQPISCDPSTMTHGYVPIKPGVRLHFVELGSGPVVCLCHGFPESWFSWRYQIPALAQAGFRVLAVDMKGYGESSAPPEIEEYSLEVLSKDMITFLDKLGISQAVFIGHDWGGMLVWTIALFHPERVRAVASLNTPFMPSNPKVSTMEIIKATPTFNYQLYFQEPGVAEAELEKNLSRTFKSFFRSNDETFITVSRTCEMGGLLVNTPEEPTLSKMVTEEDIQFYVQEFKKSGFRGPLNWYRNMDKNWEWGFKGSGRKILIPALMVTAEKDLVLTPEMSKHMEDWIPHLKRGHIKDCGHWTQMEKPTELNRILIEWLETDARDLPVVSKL

By inhibition is commonly meant how much of the control response was suppressed. For the compound `CC1CCCCC1NC(=O)Nc1ccccc1` (centres unmarked) [Siduron], the “Dog sEH Inhibition (%) S.” value in series [1] is 43%. In addition, the results for the inhibition at 0.1 µM in series [2] and in [6] were 77% and 93%, respectively. The “Horse sEH Inhibition (%) S.” value in series [3] turned out to be 81%. Further, the “Horse sEH Inhibition (%) P.” value in [4] stood at 92%. In addition, the “Dog sEH Inhibition (%) P.” value in series [5] is below 90%.

Take `CCOP(=O)(OCC)Oc1ccc([N+](=O)[O-])cc1` [Paraoxon]: in series [7], the “inhibition of sEH” value is listed as “does not inhibit sEH”.

For orientation: IC50 means the concentration needed to halve the response being measured. Consider `O=C(O)CCCCCCCCCCCNC(=O)NC12CC3CC(CC(C3)C1)C2` [compound 700], for which the inhibition at 0.1 µM in [1] (read-out: Dog sEH Inhibition (%) S.) turned out to be 80%; in series [3] (read-out: Horse sEH Inhibition (%) S.), 85%; in series [4] (read-out: Horse sEH Inhibition (%) P.) it was 94%; in series [5] (read-out: Dog sEH Inhibition (%) P.) it was 92%. In addition, the “Stability (% without microsomes) Dog liver microsomes NADPH +” value in series [8] (with NADPH) stood at 66 ± 9%. Besides, in [8] (without NADPH), the “Stability (% without microsomes) Dog liver microsomes NADPH –” value came to 94 ± 6%. In addition, the IC50 was 6 nM in [9] and 5 nM in series [10]. Also, the “Stability (% without microsomes) Cat liver microsomes NADPH +” value in [11] (1 μM inhibitor, microsomes 1 mg/mL, with NADPH, 37°C, 30 min, compound remaining, average ± SD (n = 3)) is on record as 28 ± 3%. Moreover, the “Stability (% without microsomes) Cat liver microsomes NADPH –” value in series [11] (1 μM inhibitor, microsomes 1 mg/mL, without NADPH, 37°C, 30 min, compound remaining, average ± SD (n = 3)) is recorded as 105 ± 11%. For the same compound, in series [11] (in the presence of NADPH), the “metabolism in cat liver microsomes (in words)” value is recorded as “quickly transformed”. In addition, in series [12] (with NADPH), the “Stability (% without microsomes) Horse liver microsomes NADPH +” value came out at 96 ± 9%. Besides, the “Stability (% without microsomes) Horse liver microsomes NADPH –” value in series [12] (without NADPH) was 114 ± 15%.

The values above are taken from PMC7479175, “Selection of Potent Inhibitors of Soluble Epoxide Hydrolase for Usage in Veterinary Medicine” (Frontiers in Veterinary Science, 2020).
